In patent US20250129045A1, “SMALL MOLECULE PIM AND MTOR KINASE INHIBITOR AND METHODS OF USE THEREOF” (Arizona Board of Regents on Behalf of the University of …, priority 2022, published 2025):

Experiments:
Type in all cases: cell-based
[1] = system: Prostate Cancer Growth; test: SAR studies using inhibition of prostate cancer growth as a readout; conditions: SAR by substituent position
[2] = system: PANC1 pancreatic cancer cells; test: Growth inhibition of PANC1 pancreatic cancer cells
Experimental: Cell growth assay: Tumor cells were seeded into 48 well plates (1000 cells/well) and treated with varied agents. The Incucyte real-time imaging system (Incucyte) was used to measure cell proliferation using a non-label cell monolayer confluence approach. The images were captured every 12 h. Graphs were generated using an integrated confluence metric as an alternative for cell numbers. At the end of the study cell growth was visualized by crystal violet staining.
(§1) Because of ease of growth, PANC1 pancreatic cancer cells were used to test the activity of derivatives of VBT-5445 (FIG. 14). […] Using a doxycycline inducible Pim kinase vector in these tumor cells, this inhibition of phosphorylation was proportional to the level of Pim in these cells (FIG. 9). […] Inhibition of mTORC1 is known to stimulate the feedback activation of mTORC2 leading to AKT phosphorylation. […] The effect of these compounds on mTORC1 and 2 was still evident in PC3-LN4 cells that contained a knockout (KO) using CRISPR/CAS9 of either TSC2 or DEPDC5 (FIG. 12, lanes 4-9). TSC2 KO activated the Rheb GTPase while DEPDC5 KO activated the RAG GTPase both of which stimulate mTORC1 activity. Thus, GRG compounds were capable of inhibiting mTORC1 activity even when this kinase was highly activated.

[3] = system: mTORC; test: Phosphorylation of mTORC substrates in PANC1 cells (Western blot); conditions: overnight incubation, FIG. 19
Experimental: Immunoblotting: Western blots were performed as described previously. Briefly, protein lysates (30 μg) were subjected to SDS-PAGE and transferred to nitrocellulose membranes. After blocking with 5% milk in TBST buffer for 30 min at room temperature, the membranes were incubated overnight at 4° C. with the Indicated primary antibody in 3% BSA in TBST. Specific proteins were detected with the corresponding HRP conjugated secondary antibody using enhanced chemiluminescence (GE Lifesciences, Piscataway, NJ).
as §1

[4] = system: PANC1 cells; test: Reverse-phase protein array (RPPA) of PANC1 cells, Table 3; conditions: 6 h treatment, divided by zero-time value, average of triplicate
Experimental: To further examine how these compounds function to inhibit tumor growth, changes in both a wide variety of phosphoprotein and protein levels using reverse-phase protein arrays (RPPA) were evaluated. […] The values in the RPPA obtained at these two time points were divided by the value at time zero to allow an evaluation of the changes caused by each drug treatment.

COc1ccc(CNCc2cc3ccc(Cl)cc3n(CCOc3ccccc3)c2=O)nc1 [GRG-1-27]
Activity (inhibition of prostate cancer growth) [1]: 2 active compounds

COc1ccc(OCCn2c(=O)c(CNCc3cc(C(F)(F)F)ccn3)cc3ccc(Cl)cc32)cc1 [GRG-1-127]
Activity (inhibition of prostate cancer growth) [1]: Brings activity, though 4-chloro

O=c1c(CNCc2cc(Br)ccn2)cc2ccc(N3CCOCC3)cc2n1CCOc1ccccc1 [GRG-02-24]
Activity (inhibition of prostate cancer growth) [1]: Contributes to loss of activity

O=c1c(CNCc2cccc(Br)n2)cc2ccc(Cl)cc2n1CCOc1ccccc1 [ZH-2-44]
Activity (inhibition of prostate cancer growth) [1]: 1 active compound (methoxy)

COc1ccc(OCCn2c(=O)c(CNCc3cc(Br)ccn3)cc3ccc(Cl)cc32)cc1 [GRG-1-166]
Activity (inhibition of prostate cancer growth) [1]: Brings activity, though 4-chloro

COc1ccnc(CNCc2cc3ccc(Cl)cc3n(CCOc3ccccc3)c2=O)c1 [GRG-1-95]
Activity (inhibition of prostate cancer growth) [1]: 6 active compounds

COc1ccc(OCCn2c(=O)c(CNCc3ccccn3)cc3ccc(Cl)cc32)cc1 [GRG-1-70]
Activity (inhibition of prostate cancer growth) [1]: Brings activity, though 4-chloro

O=C(NCc1cc2ccc(Cl)cc2n(CCOc2ccccc2)c1=O)c1ccccn1 [GRG-1-94, N-((7-chloro-2-oxo-1-(2-phenoxyethyl)-1,2-dihydroquinolin-3-yl)methyl) picolinamide]
growth inhibitory activity against PANC1 pancreatic cancer cells [2]: inactive
block of phosphorylation of mTORC substrates (AKT, 4E-BP1, S6) [3]: not

O=c1c(COCc2ccccc2)cc2ccc(Cl)cc2n1CCOc1ccccc1 [GRG-1-60]
growth inhibitory activity against PANC1 pancreatic cancer cells [2]: inactive
block of phosphorylation of mTORC substrates (AKT, 4E-BP1, S6) [3]: not
Activity (inhibition of prostate cancer growth) [1]: Contributes to loss of activity

Cc1ccnc(CNCc2cc3ccc(Cl)cc3n(CCOc3ccccc3)c2=O)c1 [GRG-1-96]
Activity (inhibition of prostate cancer growth) [1]: 6 active compounds

O=c1c(CNCc2ncccc2F)cc2ccc(Cl)cc2n1CCOc1ccccc1 [ZH-2-50]
Activity (inhibition of prostate cancer growth) [1]: Less active

O=c1c(COCc2ccccn2)cc2ccc(Cl)cc2n1CCOc1ccccc1 [GRG-1-63]
Activity (inhibition of prostate cancer growth) [1]: Contributes to loss of activity

CN(Cc1ccccn1)Cc1cc2ccc(Cl)cc2n(CCOc2ccccc2)c1=O [GRG-1-61]
Activity (inhibition of prostate cancer growth) [1]: Reduces activity to some extent

O=c1c(CNCc2ccccn2)cc2ccc(Cl)cc2n1CCSc1ccccc1 [GRG-1-104, 7-chloro-1-(2-(phenylthio)ethyl)-3-(((pyridin-2-ylmethyl)amino)methyl)quinolin-2 (1H)-one]
growth inhibitory activity against PANC1 pancreatic cancer cells [2]: most active
block of phosphorylation of mTORC substrates (AKT, 4E-BP1, S6) [3]: block the phosphorylation of mTORC substrates
Activity (inhibition of prostate cancer growth) [1]: Active

Cc1cccc(CNCc2cc3ccc(Cl)cc3n(CCOc3ccccc3)c2=O)n1 [GRG-1-31]
growth inhibitory activity against PANC1 pancreatic cancer cells [2]: most active
block of phosphorylation of mTORC substrates (AKT, 4E-BP1, S6) [3]: block the phosphorylation of mTORC substrates

COc1ccc(OCCn2c(=O)c(CNCc3cc(Cl)ccn3)cc3ccc(Cl)cc32)cc1 [GRG-1-167]
Activity (inhibition of prostate cancer growth) [1]: substitution decreases activity

O=c1c(CNCc2ccc(C(F)(F)F)cn2)cc2ccc(Cl)cc2n1CCOc1ccccc1 [GRG-1-28]
Activity (inhibition of prostate cancer growth) [1]: 2 active compounds

CC(C)n1nc(-c2cc3cc(O)ccc3[nH]2)c2c(N)ncnc21 [pp242, reference compound]
4EBP1S65, RPPA value after treatment / zero-time value [4]: 0.22
4EBP1T70, RPPA value after treatment / zero-time value [4]: 0.32
ATMS1981, RPPA value after treatment / zero-time value [4]: 0.46
CICaspase3D175, RPPA value after treatment / zero-time value [4]: 0.7
CofilinS3, RPPA value after treatment / zero-time value [4]: 0.6
CrkIIY221, RPPA value after treatment / zero-time value [4]: 1.57
ERKT202_Y204, RPPA value after treatment / zero-time value [4]: 2.04
FAKY576_577, RPPA value after treatment / zero-time value [4]: 0.81
FKHR-FOX01S256, RPPA value after treatment / zero-time value [4]: 1.03
GSK3a_bS21_9, RPPA value after treatment / zero-time value [4]: 1.09
HistoneH2AXS139, RPPA value after treatment / zero-time value [4]: 1.19
HistoneH3S10, RPPA value after treatment / zero-time value [4]: 0.64
IL-1bcleavedD116, RPPA value after treatment / zero-time value [4]: 0.46
Jak1Y1022_1023, RPPA value after treatment / zero-time value [4]: 0.71
MAPKpTEpY, RPPA value after treatment / zero-time value [4]: 0.64
PDGFRbY751, RPPA value after treatment / zero-time value [4]: 0.67
PP1aT320, RPPA value after treatment / zero-time value [4]: 0.61
PaxillinY118, RPPA value after treatment / zero-time value [4]: 0.9
RetY905, RPPA value after treatment / zero-time value [4]: 0.25
S6RibosomalPS235_236, RPPA value after treatment / zero-time value [4]: 0.34
S6RibosomalProtein S240_244, RPPA value after treatment / zero-time value [4]: 0.66
SAPK_JNKT183_Y185, RPPA value after treatment / zero-time value [4]: 1.07
Stat2Y690, RPPA value after treatment / zero-time value [4]: 0.76
Stat3Y705, RPPA value after treatment / zero-time value [4]: 0.51
Tyk2Y1054_1055, RPPA value after treatment / zero-time value [4]: 0.51
VEGFR2Y1175, RPPA value after treatment / zero-time value [4]: 0.34
YAPS127, RPPA value after treatment / zero-time value [4]: 0.76
cAbIY245, RPPA value after treatment / zero-time value [4]: 1.54
cKitY703, RPPA value after treatment / zero-time value [4]: 1.09
p38MAPKT180_Y182, RPPA value after treatment / zero-time value [4]: 0.59
p70S6KS371, RPPA value after treatment / zero-time value [4]: 0.39
p70S6KT389, RPPA value after treatment / zero-time value [4]: 0.29
p90RSKS380, RPPA value after treatment / zero-time value [4]: 0.91
